The values that follow come from PubChem BioAssay AID248 (DTP/NCI, 2004).

The test system of this test is L1210 leukemia ip in BDF1 mice, survival T/C. The test is described as follows: NCI In Vivo Anticancer Drug Screen. Data for tumor model L1210 Leukemia (intraperitoneal) in B6D2F1 (BDF1) mice. The conditions noted are these: endpoint: mean survival time, higher = longer survival. The essentials:
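Survival endpoint. Drug-treated group vs vehicle group, expressed as T divided by C. Tumor passaged by transplantation.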

Where [1] appears, read: dose: 100.0 mg/kg/injection, schedule: Q01DX009 (ip), vehicle: Klucel (hydroxypropylcellulose) (HPC).
[2] abbreviates: dose: 200.0 mg/kg/injection, schedule: Q01DX009 (ip), vehicle: Klucel (hydroxypropylcellulose) (HPC).
[3] abbreviates: dose: 50.0 mg/kg/injection, schedule: Q01DX009 (ip), vehicle: other.
[4] abbreviates: dose: 100.0 mg/kg/injection, schedule: Q01DX009 (ip), vehicle: other.
Setting [5] is: dose: 200.0 mg/kg/injection, schedule: Q01DX009 (ip), vehicle: other.
[6] abbreviates: dose: 12.5 mg/kg/injection, schedule: Q01DX009 (ip), vehicle: saline.
Setting [7] is: dose: 200.0 mg/kg/injection, schedule: Q04DX002 (ip), vehicle: saline with Tween-80.
Setting [8] is: dose: 400.0 mg/kg/injection, schedule: Q04DX002 (ip), vehicle: saline with Tween-80.
[9] abbreviates: dose: 100.0 mg/kg/injection, schedule: Q04DX003 (ip), vehicle: saline with Tween-80.

“And” between values parts separate entries of the source, which are not always exact repeats. Equal values may be shown once. Inconclusive results and toxic doses are left out.

With `COc1cc2c(cc1OC)C(OC)N(C)c1c-2ccc2cc(OC)c(OC)cc12` (stereo not drawn), the T/C was 110 % of control (dose: 100.0 mg/kg/injection, schedule: Q01DX009 (ip), vehicle: water); 103 % of control (dose: 100.0 mg/kg/injection, schedule: Q04DX003 (ip), vehicle: water); 115 % of control (dose: 200.0 mg/kg/injection, schedule: Q04DX003 (ip), vehicle: water); 104 % of control and 122 % of control (dose: 400.0 mg/kg/injection, schedule: Q01DX009 (ip), vehicle: water); 113 % of control (dose: 400.0 mg/kg/injection, schedule: Q04DX003 (ip), vehicle: water).
For the compound `C#CCOC(=O)Nc1ccccc1`, the T/C is, setting by setting: (dose: 50.0 mg/kg/injection, schedule: Q01DX009 (ip), vehicle: Klucel (hydroxypropylcellulose) (HPC)) 100 % of control; under setting [1], 100 % of control; under setting [2], 107 % of control.
For the compound `FC(F)(F)c1cccc(NC(=S)NC(Cc2ccccc2)c2ccccc2)c1` (stereo not drawn), the T/C is, setting by setting: (dose: 100.0 mg/kg/injection, schedule: Q04DX002 (ip), vehicle: gum acacia) 104 % of control; (dose: 200.0 mg/kg/injection, schedule: Q04DX002 (ip), vehicle: gum acacia) 98 % of control; (dose: 400.0 mg/kg/injection, schedule: Q04DX002 (ip), vehicle: gum acacia) 92 % of control.
For the compound `Cn1ncn(/N=C/c2ccc([N+](=O)[O-])o2)c1=O`, the T/C (dose: 12.5 mg/kg/injection, schedule: Q01DX009 (ip), vehicle: other) was 91 % of control; the T/C (dose: 25.0 mg/kg/injection, schedule: Q01DX009 (ip), vehicle: other) is 93 % of control; the T/C under setting [3] was 91 % of control; the T/C under setting [4] is 87 % of control; the T/C under setting [5] is 87 % of control.
`CS(C)=O.CS(C)=O.CS(C)=O.[Cl][Rh]([Cl])[Cl]`: the T/C was 106 % of control (dose: 6.25 mg/kg/injection, schedule: Q01DX009 (ip), vehicle: saline); 98 % of control under setting [6]; 107 % of control (dose: 15.0 mg/kg/injection, schedule: Q01DX009 (ip), vehicle: saline); 104 % of control (dose: 40.0 mg/kg/injection, schedule: Q01DX009 (ip), vehicle: saline); 96 % of control (dose: 100.0 mg/kg/injection, schedule: Q04DX003 (ip), vehicle: saline); 89 % of control (dose: 200.0 mg/kg/injection, schedule: Q04DX003 (ip), vehicle: saline).
`CC1(C)CCC(=O)C=C1c1c[nH]c2ccccc12`: the T/C by setting is: (dose: 100.0 mg/kg/injection, schedule: Q01DX001 (ip), vehicle: other) 88 % of control; (dose: 200.0 mg/kg/injection, schedule: Q01DX001 (ip), vehicle: other) 88 % of control; (dose: 400.0 mg/kg/injection, schedule: Q01DX001 (ip), vehicle: other) 97 % of control.
As to `C=CCN(CC=C)C(=O)c1cc(Cl)ccc1Cl`, the T/C (dose: 100.0 mg/kg/injection, schedule: Q04DX002 (ip), vehicle: saline with Tween-80) was 97 % of control; the T/C under setting [7] is 103 % of control; the T/C under setting [8] is 110 % of control.
Turning to `CC12CC3(C)CC(C)(C1)CC(NC(=O)N(CCF)N=O)(C2)C3`, the T/C (dose: 30.0 mg/kg/injection, schedule: Q01DX001 (ip), vehicle: other) is 113 % of control; the T/C (dose: 40.0 mg/kg/injection, schedule: Q01DX001 (ip), vehicle: other) is 117 % of control; the T/C (dose: 187.0 mg/kg/injection, schedule: Q01DX001 (ip), vehicle: other) is 151 % of control; the T/C (dose: 375.0 mg/kg/injection, schedule: Q01DX001 (ip), vehicle: other) was 87 % of control.
Take `COc1ccc2c(c1)CCCCC2=O`: the T/C (dose: 50.0 mg/kg/injection, schedule: Q01DX001 (ip), vehicle: carboxymethylcellulose (CMC)) was 105 % of control; the T/C (dose: 100.0 mg/kg/injection, schedule: Q01DX001 (ip), vehicle: carboxymethylcellulose (CMC)) was 102 % of control; the T/C (dose: 200.0 mg/kg/injection, schedule: Q01DX001 (ip), vehicle: carboxymethylcellulose (CMC)) is 100 % of control; the T/C (dose: 400.0 mg/kg/injection, schedule: Q01DX001 (ip), vehicle: carboxymethylcellulose (CMC)) is 102 % of control.
`CC1CC(CC(=O)O)(C(=O)O)CC(C)O1` (stereo not drawn): the T/C (dose: 100.0 mg/kg/injection, schedule: Q01DX001 (ip), vehicle: Klucel (hydroxypropylcellulose) (HPC)) was 105 % of control; the T/C under setting [9] is 90 % of control; the T/C (dose: 200.0 mg/kg/injection, schedule: Q01DX001 (ip), vehicle: Klucel (hydroxypropylcellulose) (HPC)) is 97 % of control; the T/C (dose: 200.0 mg/kg/injection, schedule: Q04DX003 (ip), vehicle: saline with Tween-80) was 101 % of control; the T/C (dose: 400.0 mg/kg/injection, schedule: Q01DX001 (ip), vehicle: Klucel (hydroxypropylcellulose) (HPC)) was 92 % of control; the T/C (dose: 400.0 mg/kg/injection, schedule: Q04DX003 (ip), vehicle: saline with Tween-80) was 95 % of control.
Regarding `O=C(C#Cc1ccccc1)N1CCCCC1`, the T/C under setting [7] was 98 % of control and the T/C under setting [8] was 101 % of control.
In the case of `CCSc1ccc2c(cc1=O)[C@@H](NC1OC(CO)C(O)C(O)C1O)CCc1cc(OC)c(OC)c(OC)c1-2` (stereo partly drawn), the T/C is 105 % of control under setting [3]; 102 % of control under setting [4]; 114 % of control under setting [5]; 114 % of control (dose: 400.0 mg/kg/injection, schedule: Q01DX009 (ip), vehicle: other).
On to `O=Cc1cc(=O)[nH]c(NC(=O)C(Cl)Cl)n1`, for which the T/C reads like this: (dose: 100.0 mg/kg/injection, schedule: Q01DX001 (ip), vehicle: saline) 101 % of control; (dose: 200.0 mg/kg/injection, schedule: Q01DX001 (ip), vehicle: saline) 104 % of control; (dose: 400.0 mg/kg/injection, schedule: Q01DX001 (ip), vehicle: saline) 89 % of control.
For the compound `CCC1(CC)C(=O)NC(=NCCCC(N)C(=O)O)NC1=O` (stereo not drawn), the T/C is 106 % of control (dose: 75.0 mg/kg/injection, schedule: Q01DX001 (ip), vehicle: carboxymethylcellulose (CMC)) and 109 % of control (dose: 150.0 mg/kg/injection, schedule: Q01DX001 (ip), vehicle: carboxymethylcellulose (CMC)).
On to `CCOC(=O)C(COS(=O)(=O)c1ccc(C)cc1)(COS(=O)(=O)c1ccc(C)cc1)C(=O)OCC`, for which the T/C (dose: 100.0 mg/kg/injection, schedule: Q01DX009 (ip), vehicle: saline) is 92 % of control; the T/C (dose: 100.0 mg/kg/injection, schedule: Q04DX003 (ip), vehicle: Klucel (hydroxypropylcellulose) (HPC)) is 97 % of control; the T/C (dose: 200.0 mg/kg/injection, schedule: Q01DX009 (ip), vehicle: saline) was 94 % of control; the T/C (dose: 200.0 mg/kg/injection, schedule: Q04DX003 (ip), vehicle: Klucel (hydroxypropylcellulose) (HPC)) is 93 % of control; the T/C (dose: 400.0 mg/kg/injection, schedule: Q04DX003 (ip), vehicle: Klucel (hydroxypropylcellulose) (HPC)) was 93 % of control.
As for `CC(=O)Nc1ccc(NC(=O)Nc2cccc(C(C)=O)c2)cc1`, the T/C under setting [1] was 90 % of control; the T/C under setting [2] was 101 % of control; the T/C (dose: 400.0 mg/kg/injection, schedule: Q01DX009 (ip), vehicle: Klucel (hydroxypropylcellulose) (HPC)) is 101 % of control.
Regarding `CCOP(N)(=O)SCC` (stereo not drawn), the T/C (dose: 5.0 mg/kg/injection, schedule: Q01DX001 (ip), vehicle: saline) was 110 % of control.
On to `O=C1/C(=C(/c2ccccc2)N2CCOCC2)Cc2ccccc21`, for which the T/C (dose: 25.0 mg/kg/injection, schedule: Q04DX003 (ip), vehicle: saline with Tween-80) was 90 % of control and the T/C under setting [9] is 95 % of control.
Take `CCC(NC)c1ccccc1` (stereo not drawn): the T/C is 104 % of control (dose: 25.0 mg/kg/injection, schedule: Q04DX002 (ip), vehicle: saline); 89 % of control (dose: 50.0 mg/kg/injection, schedule: Q04DX002 (ip), vehicle: saline); 106 % of control (dose: 100.0 mg/kg/injection, schedule: Q04DX002 (ip), vehicle: saline).
Consider `CC(C)=CCC/C(C)=C/Cn1cnc2c(ncn2C2OC(CO)C(O)C2O)c1=O` (stereo not drawn), for which the T/C under setting [6] was 100 % of control; the T/C (dose: 25.0 mg/kg/injection, schedule: Q01DX005 (ip), vehicle: saline) was 97 % of control; the T/C (dose: 25.0 mg/kg/injection, schedule: Q01DX009 (ip), vehicle: saline) is 100 % of control; the T/C (dose: 50.0 mg/kg/injection, schedule: Q01DX005 (ip), vehicle: saline) is 108 % of control; the T/C (dose: 50.0 mg/kg/injection, schedule: Q01DX009 (ip), vehicle: saline) was 92 % of control; the T/C (dose: 100.0 mg/kg/injection, schedule: Q01DX005 (ip), vehicle: saline) was 96 % of control.
